According to patent publication US20250346600A1, “TRICYCLIC DERIVATIVES AND RELATED USES” (MOMA Therapeutics, Inc., priority 2023, published 2025):
Read-outs that look alike come from different tables or passages of the source.

Assays:
HT29 cells = assay: HT29 (MSS) 7 day viability, CellTiter Glo; assay type: cell-based; conditions: 7 days, read-out: HT29 (MSS) Viability 7 Day CTGAbs AC50
Protocol: (§1) Compounds were dissolved in DMSO to a concentration of 10 mM. Compounds were then serially diluted in 10 3-fold steps in DMSO using an EVO (Tecan). Plates were then spun down for 1 minute at 1,000 RPM at room temperature.
(§2) The colon carcinoma lines HCT116 (RRID: CVCL_0291) and HT29 (RRID: CVCL_0320) were obtained from ATCC. […] All cells were maintained at 37° C. with 5% CO2 incubator.
(§3) After harvesting, cells were spun down for 5 minutes at 1200 RPM. Cells were resuspended in 10 mL of growth media and counted using Countess (Thermo Fisher). Cell concentrations were adjusted to 50 cells/well for HCT116 and 500 cells/well for HT29. 50 μL of diluted cells were added to compound treated 384 well plates using a 12 channel, 300 uL electronic handheld pipette (Integra). Cell treated plates were placed in 37 C with 5% CO2 incubator for 7 days.
(§4) Afterwards, cells were removed from incubator and equilibrated to room temperature for 15 minutes. 35 uL of CellTiter Glo (Promega #G7573) reagent were added to each well using a 12 channel, 300 uL electronic handheld pipette (Integra). Plates were incubated for 20 minutes at room temperature. Luminescence quantification was performed using Envision (PerkinElmer).
(§5) For data analysis, the assay background signal was determined in wells containing medium, but no cells. Potencies were calculated by linear least squares fit to the four-parameter logistic IC50 equation. The reported IC50 values are the geometrical mean of at least 2 independent replicates.

[1] = target: Full length WRN protein (aa 2-1432) (Homo sapiens (Human), UniProt Q14191); assay: WRN ATPase ADP-Glo biochemical assay, Assay Format B (100 μM ATP); conditions: 0.25 nM WRN, 100 nM C6.18 ssDNA, 60 min preincubation, read-out: ATPase ADPGlo AC50 (uM)- Assay Format B
Chain of Full length WRN protein (aa 2-1432) (Q14191 2-1432): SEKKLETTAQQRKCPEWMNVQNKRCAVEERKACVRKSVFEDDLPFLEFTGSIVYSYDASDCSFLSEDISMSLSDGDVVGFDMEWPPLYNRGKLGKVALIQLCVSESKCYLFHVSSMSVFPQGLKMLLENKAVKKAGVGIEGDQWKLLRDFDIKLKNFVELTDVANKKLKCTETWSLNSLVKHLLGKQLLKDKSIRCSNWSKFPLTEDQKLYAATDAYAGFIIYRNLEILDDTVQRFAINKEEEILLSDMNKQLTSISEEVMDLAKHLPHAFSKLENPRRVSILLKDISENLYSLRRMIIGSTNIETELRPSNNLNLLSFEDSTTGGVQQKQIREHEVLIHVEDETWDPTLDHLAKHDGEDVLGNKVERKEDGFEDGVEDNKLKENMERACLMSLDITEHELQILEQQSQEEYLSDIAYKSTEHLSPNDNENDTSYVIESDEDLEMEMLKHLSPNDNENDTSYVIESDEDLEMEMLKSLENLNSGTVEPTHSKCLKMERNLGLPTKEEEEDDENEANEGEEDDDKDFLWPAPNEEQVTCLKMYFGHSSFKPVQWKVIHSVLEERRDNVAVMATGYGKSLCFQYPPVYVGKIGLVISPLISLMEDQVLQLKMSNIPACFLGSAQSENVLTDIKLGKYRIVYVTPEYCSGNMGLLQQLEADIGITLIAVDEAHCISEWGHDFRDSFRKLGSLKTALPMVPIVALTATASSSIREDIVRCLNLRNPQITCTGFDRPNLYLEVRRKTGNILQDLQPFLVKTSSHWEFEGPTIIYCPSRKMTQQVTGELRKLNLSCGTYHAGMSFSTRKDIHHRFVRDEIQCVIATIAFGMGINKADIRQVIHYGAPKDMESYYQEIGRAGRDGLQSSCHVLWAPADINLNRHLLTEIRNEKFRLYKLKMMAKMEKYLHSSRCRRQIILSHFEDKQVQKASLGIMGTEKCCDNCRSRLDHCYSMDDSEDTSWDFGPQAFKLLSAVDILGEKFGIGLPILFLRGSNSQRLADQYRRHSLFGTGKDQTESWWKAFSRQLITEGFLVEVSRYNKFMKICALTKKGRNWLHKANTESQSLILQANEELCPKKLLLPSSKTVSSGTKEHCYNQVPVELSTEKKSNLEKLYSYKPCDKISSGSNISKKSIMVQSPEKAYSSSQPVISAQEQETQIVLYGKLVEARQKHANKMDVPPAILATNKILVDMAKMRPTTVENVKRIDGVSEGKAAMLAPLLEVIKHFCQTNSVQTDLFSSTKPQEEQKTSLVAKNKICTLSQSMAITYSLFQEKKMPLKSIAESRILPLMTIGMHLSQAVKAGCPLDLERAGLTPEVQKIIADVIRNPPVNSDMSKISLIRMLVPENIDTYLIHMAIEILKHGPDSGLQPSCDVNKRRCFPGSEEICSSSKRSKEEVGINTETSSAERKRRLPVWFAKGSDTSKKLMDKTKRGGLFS

HCT116 cells = assay: HCT116 (MSI) 7 day viability, CellTiter Glo; assay type: cell-based; conditions: 7 days, read-out: HCT116 (MSI) Viability 7 Day Abs AC50
Protocol: as §1, §2, §3, §4, §5

Compound | AC50 [1] | AC50 (HT29 cells) | AC50 (HCT116 cells) | AC50 (HT29 cells; Homo sapiens, HT-29, 168 h) | AC50 (HCT116 cells; Homo sapiens, HCT-116, 168 h)
C=CC(=O)N1CCc2nn(-c3ccc(C4CC4)cc3O)c3c2C(C1)N(C(=O)c1cnc(C(F)(F)F)c(OC)c1N)CC3 (stereo not drawn) [Compound 216, 1-(5-(4-amino-5-methoxy-6-(trifluoromethyl)nicotinoyl)-2-(4-cyclopropyl-2-hydroxyphenyl)-2,3,4,5,5a,6,8,9-octahydro-7H-1,2,5,7-tetraazabenzo[cd]azulen-7-yl)prop-2-en-1-one] | 0.0015 to 0.005 µM | > 3000 nM | 1 to 100 nM |  | 
C=CC(=O)N1CCc2nn(-c3ccc(C4CC4)cc3)c3c2C(C1)N(C(=O)c1cnc(C(F)(F)F)cc1NC)CC3 (stereo not drawn) [Compound 179, 1-(2-(4-cyclopropylphenyl)-5-(4-(methylamino)-6-(trifluoromethyl)nicotinoyl)-2,3,4,5,5a,6,8,9-octahydro-7H-1,2,5,7-tetraazabenzo[cd]azulen-7-yl)prop-2-en-1-one] | 0.015 to 0.055 µM |  |  | > 3000 nM | 100 to 250 nM
C=CC(=O)N1CCc2nn(-c3ccc(C4CC4)c(F)c3O)c3c2C(C1)N(C(=O)c1cnc(C(F)(F)F)cc1N)CC3 (stereo not drawn) [Compound 203, 1-(5-(4-amino-6-(trifluoromethyl)nicotinoyl)-2-(4-cyclopropyl-3-fluoro-2-hydroxyphenyl)-2,3,4,5,5a,6,8,9-octahydro-7H-1,2,5,7-tetraazabenzo[cd]azulen-7-yl)prop-2-en-1-one] | 0.005 to 0.015 µM |  |  | > 3000 nM | 1 to 100 nM
C=CC(=O)N1CCc2nn(-c3ccc(C4CCC4)cc3O)c3c2C(C1)N(C(=O)c1ccc(Br)c2[nH]c(OC(F)F)nc12)CC3 (stereo not drawn) [Compound 88, 1-(5-(7-bromo-2-(difluoromethoxy)-1H-benzo[d]imidazole-4-carbonyl)-2-(4-cyclobutyl-2-hydroxyphenyl)-2,3,4,5,5a,6,8,9-octahydro-7H-1,2,5,7-tetraazabenzo[cd]azulen-7-yl)prop-2-en-1-one] | 0.005 to 0.015 µM |  |  | > 3000 nM | 1 to 100 nM
C=CC(=O)N1CCc2nn(-c3ccc(C4CCC4)cc3)c3c2C(C1)N(C(=O)c1ccc(C(F)(F)F)c2[nH]nc(N)c12)CC3 (stereo not drawn) [Compound 147, 1-(5-(3-amino-7-(trifluoromethyl)-1H-indazole-4-carbonyl)-2-(4-cyclobutylphenyl)-2,3,4,5,5a,6,8,9-octahydro-7H-1,2,5,7-tetraazabenzo[cd]azulen-7-yl)prop-2-en-1-one] | 0.005 to 0.015 µM |  |  | > 3000 nM | 1 to 100 nM
C=CC(=O)N1CC(C)c2nn(-c3ccc(C4CC4)cc3O)c3c2C(C1)N(C(=O)c1cnc(Br)cc1N)CC3 (stereo not drawn) [Compound 190, 1-(5-(4-amino-6-bromonicotinoyl)-2-(4-cyclopropyl-2-hydroxyphenyl)-9-methyl-2,3,4,5,5a,6,8,9-octahydro-7H-1,2,5,7-tetraazabenzo[cd]azulen-7-yl)prop-2-en-1-one] | 0.005 to 0.015 µM |  |  | > 3000 nM | 1 to 100 nM
C=CC(=O)N1CCc2nn(-c3ccc(C4CC4)cc3O)c3c2C(C1)N(C(=O)c1c(N)cc(Br)c2nc[nH]c12)CC3 (stereo not drawn) [Compound 212, 1-(5-(6-amino-4-bromo-1H-benzo[d]imidazole-7-carbonyl)-2-(4-cyclopropyl-2-hydroxyphenyl)-2,3,4,5,5a,6,8,9-octahydro-7H-1,2,5,7-tetraazabenzo[cd]azulen-7-yl)prop-2-en-1-one] | 0.0015 to 0.005 µM |  |  | > 3000 nM | 1 to 100 nM
C=CC(=O)N1CCc2nn(-c3ccc(C4CCC4)cc3)c3c2C(C1)N(C(=O)c1cnc2c(C(F)(F)F)nn(C)c2c1)CC3 (stereo not drawn) [Compound 185, 1-(2-(4-cyclobutylphenyl)-5-(1-methyl-3-(trifluoromethyl)-1H-pyrazolo[4,3-b]pyridine-6-carbonyl)-2,3,4,5,5a,6,8,9-octahydro-7H-1,2,5,7-tetraazabenzo[cd]azulen-7-yl)prop-2-en-1-one] | 0.015 to 0.055 µM |  |  | 1000 to 3000 nM | 1 to 100 nM
C=CC(=O)N1CCc2nn(-c3ccc(C4CC4)cc3O)c3c2C(C1)N(C(=O)c1cnc(SC)cc1N)CC3 (stereo not drawn) [Compound 211, 1-(5-(4-amino-6-(methylthio)nicotinoyl)-2-(4-cyclopropyl-2-hydroxyphenyl)-2,3,4,5,5a,6,8,9-octahydro-7H-1,2,5,7-tetraazabenzo[cd]azulen-7-yl)prop-2-en-1-one] | 0.0015 to 0.005 µM |  |  | > 3000 nM | 1 to 100 nM
C=CC(=O)N1CCc2nn(-c3ccc(C4CC4)cc3O)c3c2C(C1)N(C(=O)c1ccc(C(F)(F)F)c(F)c1N)CC3 (stereo not drawn) [Compound 259, 1-(5-(2-amino-3-fluoro-4-(trifluoromethyl)benzoyl)-2-(4-cyclopropyl-2-hydroxyphenyl)-2,3,4,5,5a,6,8,9-octahydro-7H-1,2,5,7-tetraazabenzo[cd]azulen-7-yl)prop-2-en-1-one] | 0.015 to 0.055 µM |  |  | > 3000 nM | 1 to 100 nM
C=CC(=O)N1CCc2nn(-c3ccc(C4CC4)cc3O)c3c2C(C1)N(C(=O)c1cc(C#N)c(C(F)(F)F)cc1N)CC3 (stereo not drawn) [Compound 207, 5-(7-acryloyl-2-(4-cyclopropyl-2-hydroxyphenyl)-3,4,5,5a,6,7,8,9-octahydro-2H-1,2,5,7-tetraazabenzo[cd]azulene-5-carbonyl)-4-amino-2-(trifluoromethyl) benzonitrile] | 0.005 to 0.015 µM |  |  | > 3000 nM | 1 to 100 nM

Continued, in another order:

AC50 [1] | Compound | AC50 (HT29 cells) | AC50 (HCT116 cells) | AC50 (HT29 cells; Homo sapiens, HT-29, 168 h) | AC50 (HCT116 cells; Homo sapiens, HCT-116, 168 h)
0.005 to 0.015 µM | C=CC(=O)N1CCc2nn(C34CC(C5CCCC5)(C3)C4)c3c2C(C1)N(C(=O)c1cnc(C(F)(F)F)cc1N)CC3 (stereo not drawn) [Compound 219, 1-(5-(4-amino-6-(trifluoromethyl)nicotinoyl)-2-(3-cyclopentylbicyclo[1.1.1]pentan-1-yl)-2,3,4,5,5a,6,8,9-octahydro-7H-1,2,5,7-tetraazabenzo[cd]azulen-7-yl)prop-2-en-1-one] | > 3000 nM | 1 to 100 nM |  | 
0.0015 to 0.005 µM | C=CC(=O)N1CCc2nn(-c3ccc(C(C)C)cc3O)c3c2C(C1)N(C(=O)c1cnc(C(F)(F)F)c2[nH]ncc12)CC3 (stereo not drawn) [Compound 176, 1-(2-(2-hydroxy-4-isopropylphenyl)-5-(7-(trifluoromethyl)-1H-pyrazolo[3,4-c]pyridine-4-carbonyl)-2,3,4,5,5a,6,8,9-octahydro-7H-1,2,5,7-tetraazabenzo[cd]azulen-7-yl)prop-2-en-1-one] |  |  | > 3000 nM | 1 to 100 nM
0.005 to 0.015 µM | C=CC(=O)N1CCc2nn(-c3ccc(C4CC4)cc3O)c3c2C(C1)N(C(=O)c1cnc(SC(F)(F)F)c(F)c1N)CC3 (stereo not drawn) [Compound 214, 1-(5-(4-amino-5-fluoro-6-((trifluoromethyl)thio)nicotinoyl)-2-(4-cyclopropyl-2-hydroxyphenyl)-2,3,4,5,5a,6,8,9-octahydro-7H-1,2,5,7-tetraazabenzo[cd]azulen-7-yl)prop-2-en-1-one] |  |  | > 3000 nM | 1 to 100 nM
0.005 to 0.015 µM | C=CC(=O)N1CCc2nn(-c3ccc(C4CC4)cc3O)c3c2C(C1)N(C(=O)c1cnc(Br)cc1N)CC3 (stereo not drawn) [Compound 191, 1-(5-(4-amino-6-bromonicotinoyl)-2-(4-cyclopropyl-2-hydroxyphenyl)-2,3,4,5,5a,6,8,9-octahydro-7H-1,2,5,7-tetraazabenzo[cd]azulen-7-yl)prop-2-en-1-one] |  |  | > 3000 nM | 1 to 100 nM
0.0015 to 0.005 µM | C=CC(=O)N1CCc2nn(-c3ccc(C4CC4)cc3O)c3c2C(C1)N(C(=O)c1cnc(C(F)(F)F)c(C)c1N)CC3 (stereo not drawn) [Compound 208, 1-(5-(4-amino-5-methyl-6-(trifluoromethyl)nicotinoyl)-2-(4-cyclopropyl-2-hydroxyphenyl)-2,3,4,5,5a,6,8,9-octahydro-7H-1,2,5,7-tetraazabenzo[cd]azulen-7-yl)prop-2-en-1-one] |  |  | > 3000 nM | 1 to 100 nM
0.005 to 0.015 µM | C=CC(=O)N1CCc2nn(-c3ccc(C4CC4)cc3O)c3c2C(C1)N(C(=O)c1ccc(C(F)(F)F)nc1N)CC3 (stereo not drawn) [Compound 172, 1-(5-(2-amino-6-(trifluoromethyl)nicotinoyl)-2-(4-cyclopropyl-2-hydroxyphenyl)-2,3,4,5,5a,6,8,9-octahydro-7H-1,2,5,7-tetraazabenzo[cd]azulen-7-yl)prop-2-en-1-one] |  |  | > 3000 nM | 1 to 100 nM
0.005 to 0.015 µM | C=CC(=O)N1CC(OC2CC2)c2nn(-c3ccc(C4CC4)cc3O)c3c2C(C1)N(C(=O)c1cnc(C(F)(F)F)cc1N)CC3 (stereo not drawn) [Compound 232, 1-(5-(4-amino-6-(trifluoromethyl)nicotinoyl)-9-cyclopropoxy-2-(4-cyclopropyl-2-hydroxyphenyl)-2,3,4,5,5a,6,8,9-octahydro-7H-1,2,5,7-tetraazabenzo[cd]azulen-7-yl)prop-2-en-1-one] |  |  | > 3000 nM | 1 to 100 nM
